How the values were obtained:
[1] = tested on: β-Glucosidase derived from A. niger; test: Reactivity toward various isoflavone glycosides (HPLC); type: biochemical, Aspergillus niger; design: glucoside / aglycon: unit not given here; settings: 55 °C, pH 4.0
Method in brief: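 Enzymes at 0.75 AU/mL in pH 4.0 acetate buffer were reacted at 55° C with individual isoflavone glycosides (substrate stock 2 mM in methanol) in 20 mM acetate pH 4.0. Aglycone release followed at 0, 1, 3 and 6 h: ethanol-quenched, ODS HPLC with UV 260 nm, quantified against calibration curves.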

[2] = tested on: Crude diglycosidase; test: Examination of substrate concentration in the conversion into isoflavone aglycons by diglycosidase using soybean materials; type: biochemical, Penicillium multicolor IAM7153;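 note: percent of the isoflavone family total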
Method in brief: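 Soybean materials (roasted soy flour, soymilk, defatted soybean, concentrated soy protein) at 2–30% (w/v) in 20 mM acetate pH 4.0 were reacted with crude diglycosidase at 55° C with shaking; enzyme solution added was 1.88 AU/mL. Samples taken at 0, 1, 3 and 6 h were ethanol-extracted and analyzed by HPLC.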

- reactivity of β-glucosidase derived from Aspergillus niger (in words) [1]: act well
- aglycon ([1]; Reaction time 0 h): 0
- glucoside ([1]; Reaction time 0 h): 100
- aglycon ([1]; Reaction time 1 h): 49.5
- glucoside ([1]; Reaction time 1 h): 50.5
- aglycon ([1]; Reaction time 3 h): 88.3
- glucoside ([1]; Reaction time 3 h): 11.7
- aglycon ([1]; Reaction time 6 h): 95.5
- glucoside ([1]; Reaction time 6 h): 4.5
- Decomposition efficiency: ratio of each glycoside/aglycon within its isoflavone family ([2]; concentrated soybean protein, substrate concentration 2%, heat treatment of enzyme no, reaction time 0 h): 52.2%
- Decomposition efficiency: ratio of each glycoside/aglycon within its isoflavone family ([2]; concentrated soybean protein, substrate concentration 2%, heat treatment of enzyme no, reaction time 1 h): not detected
- Decomposition efficiency: ratio of each glycoside/aglycon within its isoflavone family ([2]; concentrated soybean protein, substrate concentration 2%, heat treatment of enzyme no, reaction time 3 h): not detected
- Decomposition efficiency: ratio of each glycoside/aglycon within its isoflavone family ([2]; concentrated soybean protein, substrate concentration 2%, heat treatment of enzyme no, reaction time 6 h): not detected
- Decomposition efficiency: ratio of each glycoside/aglycon within its isoflavone family ([2]; concentrated soybean protein, substrate concentration 2%, heat treatment of enzyme yes, reaction time 6 h): 53.4%
- Decomposition efficiency: ratio of each glycoside/aglycon within its isoflavone family ([2]; concentrated soybean protein, substrate concentration 5%, heat treatment of enzyme no, reaction time 0 h): 52.9%
- Decomposition efficiency: ratio of each glycoside/aglycon within its isoflavone family ([2]; concentrated soybean protein, substrate concentration 5%, heat treatment of enzyme no, reaction time 1 h): not detected
- Decomposition efficiency: ratio of each glycoside/aglycon within its isoflavone family ([2]; concentrated soybean protein, substrate concentration 5%, heat treatment of enzyme no, reaction time 3 h): not detected
- Decomposition efficiency: ratio of each glycoside/aglycon within its isoflavone family ([2]; concentrated soybean protein, substrate concentration 5%, heat treatment of enzyme no, reaction time 6 h): not detected
- Decomposition efficiency: ratio of each glycoside/aglycon within its isoflavone family ([2]; concentrated soybean protein, substrate concentration 5%, heat treatment of enzyme yes, reaction time 6 h): 54.0%
- Decomposition efficiency: ratio of each glycoside/aglycon within its isoflavone family ([2]; concentrated soybean protein, substrate concentration 10%, heat treatment of enzyme no, reaction time 0 h): 52.9%
- Decomposition efficiency: ratio of each glycoside/aglycon within its isoflavone family ([2]; concentrated soybean protein, substrate concentration 10%, heat treatment of enzyme no, reaction time 1 h): 1.6%
- Decomposition efficiency: ratio of each glycoside/aglycon within its isoflavone family ([2]; concentrated soybean protein, substrate concentration 10%, heat treatment of enzyme no, reaction time 3 h): not detected
- Decomposition efficiency: ratio of each glycoside/aglycon within its isoflavone family ([2]; concentrated soybean protein, substrate concentration 10%, heat treatment of enzyme no, reaction time 6 h): not detected
- Decomposition efficiency: ratio of each glycoside/aglycon within its isoflavone family ([2]; concentrated soybean protein, substrate concentration 10%, heat treatment of enzyme yes, reaction time 6 h): 53.4%
- Decomposition efficiency: ratio of each glycoside/aglycon within its isoflavone family ([2]; concentrated soybean protein, substrate concentration 20%, heat treatment of enzyme no, reaction time 0 h): 53.1%
- Decomposition efficiency: ratio of each glycoside/aglycon within its isoflavone family ([2]; concentrated soybean protein, substrate concentration 20%, heat treatment of enzyme no, reaction time 1 h): 13.2%
- Decomposition efficiency: ratio of each glycoside/aglycon within its isoflavone family ([2]; concentrated soybean protein, substrate concentration 20%, heat treatment of enzyme no, reaction time 3 h): not detected
- Decomposition efficiency: ratio of each glycoside/aglycon within its isoflavone family ([2]; concentrated soybean protein, substrate concentration 20%, heat treatment of enzyme no, reaction time 6 h): not detected
- Decomposition efficiency: ratio of each glycoside/aglycon within its isoflavone family ([2]; concentrated soybean protein, substrate concentration 20%, heat treatment of enzyme yes, reaction time 6 h): 52.8%
- Decomposition efficiency: ratio of each glycoside/aglycon within its isoflavone family ([2]; concentrated soybean protein, substrate concentration 30%, heat treatment of enzyme no, reaction time 0 h): 57.5%
- Decomposition efficiency: ratio of each glycoside/aglycon within its isoflavone family ([2]; concentrated soybean protein, substrate concentration 30%, heat treatment of enzyme no, reaction time 1 h): 2.0%
- Decomposition efficiency: ratio of each glycoside/aglycon within its isoflavone family ([2]; concentrated soybean protein, substrate concentration 30%, heat treatment of enzyme no, reaction time 3 h): not detected
- Decomposition efficiency: ratio of each glycoside/aglycon within its isoflavone family ([2]; concentrated soybean protein, substrate concentration 30%, heat treatment of enzyme no, reaction time 6 h): not detected
- Decomposition efficiency: ratio of each glycoside/aglycon within its isoflavone family ([2]; concentrated soybean protein, substrate concentration 30%, heat treatment of enzyme yes, reaction time 6 h): 58.0%
- Decomposition efficiency: ratio of each glycoside/aglycon within its isoflavone family ([2]; defatted soybean, substrate concentration 2%, heat treatment of enzyme no, reaction time 0 h): not detected
- Decomposition efficiency: ratio of each glycoside/aglycon within its isoflavone family ([2]; defatted soybean, substrate concentration 2%, heat treatment of enzyme no, reaction time 1 h): not detected
- Decomposition efficiency: ratio of each glycoside/aglycon within its isoflavone family ([2]; defatted soybean, substrate concentration 2%, heat treatment of enzyme no, reaction time 3 h): not detected
- Decomposition efficiency: ratio of each glycoside/aglycon within its isoflavone family ([2]; defatted soybean, substrate concentration 2%, heat treatment of enzyme no, reaction time 6 h): not detected
- Decomposition efficiency: ratio of each glycoside/aglycon within its isoflavone family ([2]; defatted soybean, substrate concentration 2%, heat treatment of enzyme yes, reaction time 6 h): not detected
- Decomposition efficiency: ratio of each glycoside/aglycon within its isoflavone family ([2]; defatted soybean, substrate concentration 5%, heat treatment of enzyme no, reaction time 0 h): not detected
- Decomposition efficiency: ratio of each glycoside/aglycon within its isoflavone family ([2]; defatted soybean, substrate concentration 5%, heat treatment of enzyme no, reaction time 1 h): not detected
- Decomposition efficiency: ratio of each glycoside/aglycon within its isoflavone family ([2]; defatted soybean, substrate concentration 5%, heat treatment of enzyme no, reaction time 3 h): not detected
- Decomposition efficiency: ratio of each glycoside/aglycon within its isoflavone family ([2]; defatted soybean, substrate concentration 5%, heat treatment of enzyme no, reaction time 6 h): not detected
- Decomposition efficiency: ratio of each glycoside/aglycon within its isoflavone family ([2]; defatted soybean, substrate concentration 5%, heat treatment of enzyme yes, reaction time 6 h): not detected
- Decomposition efficiency: ratio of each glycoside/aglycon within its isoflavone family ([2]; defatted soybean, substrate concentration 10%, heat treatment of enzyme no, reaction time 0 h): not detected
- Decomposition efficiency: ratio of each glycoside/aglycon within its isoflavone family ([2]; defatted soybean, substrate concentration 10%, heat treatment of enzyme no, reaction time 1 h): not detected
- Decomposition efficiency: ratio of each glycoside/aglycon within its isoflavone family ([2]; defatted soybean, substrate concentration 10%, heat treatment of enzyme no, reaction time 3 h): not detected
- Decomposition efficiency: ratio of each glycoside/aglycon within its isoflavone family ([2]; defatted soybean, substrate concentration 10%, heat treatment of enzyme no, reaction time 6 h): not detected
- Decomposition efficiency: ratio of each glycoside/aglycon within its isoflavone family ([2]; defatted soybean, substrate concentration 10%, heat treatment of enzyme yes, reaction time 6 h): not detected
Structure (SMILES): COc1cc2c(=O)c(-c3ccc(O)cc3)coc2cc1O[C@@H]1O[C@H](CO)[C@@H](O)[C@H](O)[C@H]1O [glycitin]
